In US20160192658A1 (priority 2013, published 2016):

Assay: in vitro
Conditions: human

## NC(=O)c1ncn([C@@H]2O[C@H](CO)[C@@H](O)[C@H]2O)n1 [Ribavirin, ribavirin]
  CC50 at 5 days: > 200 µM
